Experiments:
[1] = target: T1, synaptosomal reuptake of noradrenaline ([3H]-NA) (Rattus norvegicus, UniProt Q9WTR4); settings: in vitro; cited from earlier work
[2] = target: T2, synaptosomal reuptake of dopamine ([3H]-DA) (Rattus norvegicus, UniProt P23977); settings: in vitro; cited from earlier work
[3] = target: T3, synaptosomal reuptake of serotonin ([3H]-5HT) (Rattus norvegicus, UniProt P31652); settings: in vitro; cited from earlier work
[4] = system: synatosomal reuptake of glutamate; settings: in vitro; cited from earlier work
[5] = system: synatosomal reuptake of GABA; settings: in vitro; cited from earlier work
sites of uptake of 5-HT = target: T4, sites of uptake of 5-HT (Rattus norvegicus, UniProt P31652); test: binding of [3H]-citalopram to sites of uptake of 5-HT, frontal cortex membranes; settings: 3×10^−7-3×10^−11 g/mL
T4 construct: in synaptosomes prepared from striatum, hypothalamus and frontal cortex, respectively; from tissue; host or cells: frontal cortex (synaptosomes; membranes)

[6] = target: T2, synaptosomal reuptake of dopamine ([3H]-DA); test: synaptosomal reuptake of dopamine ([3H]-DA), striatum synaptosomes; format: biochemical; design: in synaptosomes prepared from striatum, hypothalamus and frontal cortex, respectively; from tissue; host or cells: striatum (synaptosomes; membranes)
Excerpt: (§1) The effect of HP4 (3×10^−4-3×10^−11 g/mL) on synaptosomal reuptake of dopamine ([^3H]-DA), noradrenaline ([^3H]-NA) and serotonin ([^3H]-5HT) in synaptosomes prepared from striatum, hypothalamus and frontal cortex, respectively. […] This profile differs from other antidepressants, which inhibit the reuptake of monoamines through competition for binding site on the transporter.

immobility time of mice = test: Porsolt's forced swimming test (FST) in mice; format: in vivo, CF1 mice; settings: 90 mg/kg, p.o.
Protocol: The species H. caprifoliatum, H. carinatum, H. connatum, H. myrianthum, H. piriai, H. polyanthemum and H. cordatum, and three isolated benzopyrans of H. polyanthemum (HP1, HP2, and HP3) were tested for inhibitory activity of monoamine oxidase A and B in preparations of mitochondria from rat brain.
Results are expressed as mean±SEM. * Significant difference compared to the SAL group (water+polysorbate 80, 5%, 1 ml/kg, p.o.) # significant difference compared to POL270 (ANOVA F(7,79)=5.9, p<0.001).
Results are expressed as mean±SEM. *Significant difference compared to the SAL group (water+polysorbate 80, 5%, 1 ml/kg, p.o.) (ANOVA, F(2,29)=15.5, p<0.001).
POL was active in rats (270 mg/kg/day, p.o.) and mice (180, 270 and 360 mg/kg, p.o.). The action of POL in the FST was blocked by administration of SCH 23390 (dopamine D1 antagonist) […], i.p., and sulpiride (D2 dopamine antagonist) 50 mg/kg, ip, (FIG. 1). HP4 was active at a dose of 90 mg/kg, p.o. in mice (FIG. 2).

G proteins = test: direct incubation of membranes with HP4, [35S]GTPγS binding; format: biochemical, rats
Protocol: To evaluate the effect of POL on DA, NA, 5-HT and opioids receptors, we used the technique of binding of [^35S] GTPγS stimulated by DA, NA, 5-HT and DAMGO in membranes prepared from striatum, hypothalamus, frontal cortex and thalamus of rats, respectively. […] GTPγS stimulated by DA, NA and 5-HT, while 5 days of treatment with 90 mg/kg, decreases this binding. […] This time profile of action coincides with the modern theories that the antidepressant effect is related to neuroadaptation processes.
GTPγS to its site. […] These changes can occur through other regulatory mechanisms or are related to HP4 metabolites produced after administration in vivo of POL. […] GTPγS stimulated by agonists after different treatment regimens with saline and POL.

sites of uptake of NA = target: T5, sites of uptake of NA (Rattus norvegicus, UniProt Q9WTR4); test: binding of [3H]-nisoxetina to sites of uptake of NA, hypothalamus membranes; settings: 3×10^−7-3×10^−11 g/mL
T5 construct: in synaptosomes prepared from striatum, hypothalamus and frontal cortex, respectively; from tissue; host or cells: hypothalamus (synaptosomes; membranes)

sites of uptake of DA = target: T6, sites of uptake of DA (Rattus norvegicus, UniProt P23977); test: binding of [3H]-mazindol to sites of uptake of DA, striatum membranes; settings: 3×10^−7-3×10^−11 g/mL
T6 construct: in synaptosomes prepared from striatum, hypothalamus and frontal cortex, respectively; from tissue; host or cells: striatum (synaptosomes; membranes)

[7] = target: T3, synaptosomal reuptake of serotonin ([3H]-5HT); test: synaptosomal reuptake of serotonin ([3H]-5HT), frontal cortex synaptosomes; format: biochemical; design: in synaptosomes prepared from striatum, hypothalamus and frontal cortex, respectively; from tissue; host or cells: frontal cortex (synaptosomes; membranes); settings: synaptosomes from frontal cortex; HP4 3×10^−4-3×10^−11 g/mL; read-out: IC50, synaptosomal uptake of 5-HT
Excerpt: as §1

[8] = target: T1, synaptosomal reuptake of noradrenaline ([3H]-NA); test: synaptosomal reuptake of noradrenaline ([3H]-NA), hypothalamus synaptosomes; format: biochemical; design: in synaptosomes prepared from striatum, hypothalamus and frontal cortex, respectively; from tissue; host or cells: hypothalamus (synaptosomes; membranes); settings: synaptosomes from hypothalamus; HP4 3×10^−4-3×10^−11 g/mL; read-out: IC50, synaptosomal uptake of NA
Excerpt: as §1

corticosterone = test: serum and cortical corticosterone in mice subjected to forced swimming (radioimmunoassay); format: in vivo; settings: three days of treatment, POL 360 mg/kg p.o., imipramine 20 mg/kg, bupropion 30 mg/kg; for serum levels of corticosterone: forced swimming
Protocol: Data are presented as mean±SEM. *p<0.01 compared to respective group without swimming; #p<0.01 compared to SAL with swimming. Legend: (A) X axis—corticosterone levels (μg/100 mL plasma); Blank values: no swimming; values hatch: with swim, (B) X axis—cortical Corticosterone (pg/100 mg tissue).
We evaluated the action of POL (360 mg/kg, p.o.) on serum and cortical levels of corticosterone in mice subjected or not to stress caused by forced swimming. The concentration of corticosterone present in the samples was measured by radioimmunoassay.

monoamine oxidase A = target: T7, monoamine oxidase A (Rattus norvegicus, UniProt P21396); settings: mitochondria from rat brain; cited from earlier work
T7 construct: in preparations of mitochondria from rat brain; from tissue; host or cells: rat brain mitochondria
T7 sequence (P21396 1-526): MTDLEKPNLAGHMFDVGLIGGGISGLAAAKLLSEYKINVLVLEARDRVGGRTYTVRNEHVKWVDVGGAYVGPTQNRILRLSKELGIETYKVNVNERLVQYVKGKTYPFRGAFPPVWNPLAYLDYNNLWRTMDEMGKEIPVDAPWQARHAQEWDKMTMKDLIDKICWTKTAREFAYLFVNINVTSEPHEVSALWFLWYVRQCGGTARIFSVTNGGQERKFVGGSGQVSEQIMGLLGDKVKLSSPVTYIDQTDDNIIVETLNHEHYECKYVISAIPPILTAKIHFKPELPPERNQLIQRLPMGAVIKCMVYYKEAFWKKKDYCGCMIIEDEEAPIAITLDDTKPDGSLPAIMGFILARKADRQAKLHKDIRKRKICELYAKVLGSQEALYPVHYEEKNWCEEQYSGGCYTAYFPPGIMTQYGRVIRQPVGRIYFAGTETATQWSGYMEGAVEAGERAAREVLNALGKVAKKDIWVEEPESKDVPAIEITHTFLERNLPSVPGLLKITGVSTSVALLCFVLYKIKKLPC

T2 sequence (P23977 whole entry): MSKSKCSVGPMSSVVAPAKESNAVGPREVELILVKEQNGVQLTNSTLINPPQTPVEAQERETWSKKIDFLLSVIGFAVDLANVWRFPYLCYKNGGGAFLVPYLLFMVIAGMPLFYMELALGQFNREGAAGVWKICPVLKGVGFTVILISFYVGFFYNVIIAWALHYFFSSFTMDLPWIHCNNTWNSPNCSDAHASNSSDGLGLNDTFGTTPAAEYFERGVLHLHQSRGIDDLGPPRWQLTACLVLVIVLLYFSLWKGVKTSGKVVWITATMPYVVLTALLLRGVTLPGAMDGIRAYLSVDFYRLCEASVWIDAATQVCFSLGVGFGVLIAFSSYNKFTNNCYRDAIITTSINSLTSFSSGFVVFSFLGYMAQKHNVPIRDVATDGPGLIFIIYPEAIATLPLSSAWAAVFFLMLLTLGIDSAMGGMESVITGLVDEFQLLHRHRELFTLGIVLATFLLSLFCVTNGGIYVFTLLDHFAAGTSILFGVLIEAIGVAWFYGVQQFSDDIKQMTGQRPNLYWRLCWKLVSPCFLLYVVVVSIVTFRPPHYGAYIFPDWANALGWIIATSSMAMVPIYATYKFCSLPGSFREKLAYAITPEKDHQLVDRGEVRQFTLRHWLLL
T3 sequence (P31652 whole entry): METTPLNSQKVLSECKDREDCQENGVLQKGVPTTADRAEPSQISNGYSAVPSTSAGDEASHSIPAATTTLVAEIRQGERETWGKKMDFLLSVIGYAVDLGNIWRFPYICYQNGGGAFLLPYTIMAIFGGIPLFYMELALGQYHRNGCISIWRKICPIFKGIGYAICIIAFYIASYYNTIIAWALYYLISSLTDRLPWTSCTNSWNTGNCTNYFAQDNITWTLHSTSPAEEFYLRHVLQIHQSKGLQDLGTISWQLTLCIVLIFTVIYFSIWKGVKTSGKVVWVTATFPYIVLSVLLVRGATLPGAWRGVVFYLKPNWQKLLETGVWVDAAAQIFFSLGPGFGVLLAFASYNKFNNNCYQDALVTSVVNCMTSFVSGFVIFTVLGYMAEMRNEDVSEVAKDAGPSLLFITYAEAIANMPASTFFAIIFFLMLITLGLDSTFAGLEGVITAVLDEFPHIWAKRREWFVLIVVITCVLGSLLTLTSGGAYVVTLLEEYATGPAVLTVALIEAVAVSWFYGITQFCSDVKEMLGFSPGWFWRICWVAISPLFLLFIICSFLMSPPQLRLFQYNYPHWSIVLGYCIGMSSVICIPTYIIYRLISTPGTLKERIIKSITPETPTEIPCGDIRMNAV
T1 sequence (Q9WTR4 1-597): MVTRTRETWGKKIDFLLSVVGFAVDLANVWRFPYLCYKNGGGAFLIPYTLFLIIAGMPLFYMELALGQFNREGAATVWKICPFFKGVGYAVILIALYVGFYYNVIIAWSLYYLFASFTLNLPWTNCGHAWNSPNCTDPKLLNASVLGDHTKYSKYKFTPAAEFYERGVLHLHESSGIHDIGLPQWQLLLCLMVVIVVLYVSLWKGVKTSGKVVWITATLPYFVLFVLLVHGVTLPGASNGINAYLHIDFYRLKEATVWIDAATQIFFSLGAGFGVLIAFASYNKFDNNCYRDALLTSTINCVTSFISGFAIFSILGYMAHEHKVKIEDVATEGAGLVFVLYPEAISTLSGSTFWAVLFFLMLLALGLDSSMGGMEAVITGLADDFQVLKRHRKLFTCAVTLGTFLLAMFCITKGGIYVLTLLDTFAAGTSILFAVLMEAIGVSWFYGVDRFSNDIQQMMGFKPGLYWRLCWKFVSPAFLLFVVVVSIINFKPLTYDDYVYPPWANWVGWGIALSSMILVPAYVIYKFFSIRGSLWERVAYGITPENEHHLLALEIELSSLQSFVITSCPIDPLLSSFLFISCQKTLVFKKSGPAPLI
T4 sequence (P31652 whole entry): as the sequence (P31652 whole entry) above
T6 sequence (P23977 whole entry): as the sequence (P23977 whole entry) above
T5 sequence (Q9WTR4 1-597): as the sequence (Q9WTR4 1-597) above

hyperforin
inhibition of synaptosomal reuptake of norepinephrine [1]: inhibit | inhibition of synaptosomal reuptake of dopamine [2]: inhibit | inhibition of synaptosomal reuptake of serotonin [3]: inhibit | inhibition of synaptosomal reuptake of glutamate [4]: inhibits | inhibition of synaptosomal reuptake of GABA [5]: inhibits

CC(C)C(=O)C1=C(O)C(C)(C)C(O)=C(Cc2c(O)c3c(c(C(=O)C(C)C)c2O)OC(C)(C)C=C3)C1=O [HP4, uliginosin B]
effect on binding of [3H]-citalopram to sites of uptake of 5-HT (sites of uptake of 5-HT): did not affect the binding | IC50 for dopamine relative to IC50 for NA and 5-HT (reuptake selectivity) ([6]; in vitro synaptosomal reuptake): almost three times smaller | IC50 ([6]; synaptosomes from striatum, HP4 3×10^−4-3×10^−11 g/mL, read-out: IC50, synaptosomal uptake of DA): 90 ± 38 nM | activity in forced swimming test (immobility time of mice): active | effect on binding of [35S]GTPγS to its site (G proteins): did not alter the binding | effect on binding of [3H]-nisoxetina to sites of uptake of NA (sites of uptake of NA): did not affect the binding | effect on binding of [3H]-mazindol to sites of uptake of DA (sites of uptake of DA): did not affect the binding | IC50 [7]: 252 ± 13 nM | IC50 [8]: 280 ± 48 nM

CN(C)CCCN1c2ccccc2CCc2ccccc21 [imipramine]
level of cortical corticosterone raised by forced swimming (corticosterone): alters both serum and cortical levels | serum levels of corticosterone (corticosterone): alters both serum and cortical levels

CC(NC(C)(C)C)C(=O)c1cccc(Cl)c1 (stereo not shown) [bupropion]
level of cortical corticosterone raised by forced swimming (corticosterone): alters both serum and cortical levels | serum levels of corticosterone (corticosterone): alters both serum and cortical levels

COc1cc2c(c(O)c1C(=O)C(C)C)C=CC(C)(C)O2 [HP3, 5-hydroxy-6-isobutyryl-7-methoxy-2,2-dimethyl-benzopyran]
IC50 (monoamine oxidase A): 22200 nM
